Test results as given in US20170327598A1, “SINGLE DOMAIN ANTIBODIES DIRECTED AGAINST INTRACELLULAR ANTIGENS” (SINGH MOLECULAR MEDICINE, LLC, priority 2014, published 2017).
Where “and” joins values, the source holds several entries; their conditions need not be identical. Identical values can stand only once.

Key:
[1] = system: translocation of Stat3 to the nucleus; experiment: Stat3 immunofluorescence after IL-6 treatment (HEp-2, MDA-MB-231, PANC-1); assay type: cell-based; details: sdAb 1:10 in media overnight, 100 ng/ml IL-6 15 min
Description: The cells were grown to confluence on chamber slides. […] As a negative control, no antibody was added to duplicate chambers. The slides were washed, and either serum-free media alone or 100 ng/ml recombinant human IL-6 (Peprotech, Rocky Hill, N.J.) in serum free media was added to the slides for 15 min at 37° C. The media was then removed and the chamber slides were fixed in ice cold 100% methanol for 10 min at −20° C.
Immunofluorescence assays were performed on the fixed slides. First, the slides were blocked with 3% BSA in PBS was done for one hour at room temperature. The primary antibody, Stat3(124H6) mouse monoclonal antibody (Cell Signaling Technology, Danvers, Mass.) was added to the slides at a 1:1000 dilution overnight in dark box at 4° C. The following day, the slides were washed and the secondary Alexa Fluor 488 anti-mouse IgG antibody (Cell Signaling Technology) was added at a 1:500 dilution and incubated for 1 hour at room temperature. The slides were then washed, mounted with mounting media and viewed with a fluorescence microscope.

[2] = system: VEGF-A production in ARPE-19 cells; experiment: VEGF-A ELISA in ARPE-19 retinal cells, Experiment 2;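 as to all read-outs here: confluent ARPE-19 cells in 96-well plates, VEGF-A in culture supernatant quantified by ELISA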; assay type: cell-based, human; details: for pg VEGF-A per mL: based on collecting 0.1 ml of supernatant; for Mean (pg VEGF-A per mL): mean of Adj. Result, Wells 1-3; for Mean (pg VEGF-A per μg protein): mean of Wells 1-3; for Mean (pg VEGF-A per μg protein) / % Control: Experiment 2; for % Control: normalized for protein; for Mean Result (pg VEGF-A per mL) / pg VEGF-A per μg protein / Adj. Result (pg VEGF-A per mL): per well; for Adj. Result (pg VEGF-A per mL): adjusted for dilution; for Result (pg VEGF-A per mL): single reads

“Anti-STAT3 VHH13: anti-STAT3 single domain antibody, SEQ ID NO:3; bacterially produced form referred to as SBT-100” was tested, and the “translocation of Stat3 to the nucleus following IL-6 treatment” value [1] was “blocks the translocation of Stat3 to the nucleus”, the “% Negative Control” value ([2]; 0.1 μg/well, 12 Hr) was 123.8% and the “pg VEGF-A per mL” value ([2]; 0.1 μg/well, 12 Hr) was 18.6 pg VEGF-A per mL and 14.3 pg VEGF-A per mL and 15 pg VEGF-A per mL. The “Mean (pg VEGF-A per mL)” value ([2]; 0.1 μg/well, 12 Hr) was 159.7 pg VEGF-A per mL, the “Mean (pg VEGF-A per μg protein)” value ([2]; 0.1 μg/well, 12 Hr) was 2.540 pg VEGF-A per μg protein and the “% Control” value ([2]; 0.1 μg/well, 12 Hr) was 134.4%. The “Mean Result (pg VEGF-A per mL)” value ([2]; 0.1 μg/well, 12 Hr) was 37.2 pg VEGF-A per mL and 28.54 pg VEGF-A per mL and 30.06 pg VEGF-A per mL, the “pg VEGF-A per μg protein” value ([2]; 0.1 μg/well, 12 Hr) was 3 pg VEGF-A per μg protein and 2.1 pg VEGF-A per μg protein and 2.4 pg VEGF-A per μg protein and the “Adj. Result (pg VEGF-A per mL)” value ([2]; 0.1 μg/well, 12 Hr) was 186.02 pg VEGF-A per mL and 142.71 pg VEGF-A per mL and 150.31 pg VEGF-A per mL. For the same substance, the “Result (pg VEGF-A per mL)” value ([2]; 0.1 μg/well, 12 Hr) was 30.38 pg VEGF-A per mL and 36.84 pg VEGF-A per mL and 37.57 pg VEGF-A per mL and 29.44 pg VEGF-A per mL and 27.64 pg VEGF-A per mL and 29.74 pg VEGF-A per mL, the “% Negative Control” value ([2]; 0.1 μg/well, 24 Hr) was 93.6% and the “pg VEGF-A per mL” value ([2]; 0.1 μg/well, 24 Hr) was 27.9 pg VEGF-A per mL and 28 pg VEGF-A per mL and 30.4 pg VEGF-A per mL. For the same substance, the “Mean (pg VEGF-A per mL)” value ([2]; 0.1 μg/well, 24 Hr) was 287.4 pg VEGF-A per mL, the “Mean (pg VEGF-A per μg protein)” value ([2]; 0.1 μg/well, 24 Hr) was 4.152 pg VEGF-A per μg protein and the “% Control” value ([2]; 0.1 μg/well, 24 Hr) was 94.1%. The “Mean Result (pg VEGF-A per mL)” value ([2]; 0.1 μg/well, 24 Hr) was 55.73 pg VEGF-A per mL and 56.02 pg VEGF-A per mL and 60.72 pg VEGF-A per mL, the “pg VEGF-A per μg protein” value ([2]; 0.1 μg/well, 24 Hr) was 3.8 pg VEGF-A per μg protein and 4.0 pg VEGF-A per μg protein and 4.7 pg VEGF-A per μg protein and the “Adj. Result (pg VEGF-A per mL)” value ([2]; 0.1 μg/well, 24 Hr) was 278.66 pg VEGF-A per mL and 280.09 pg VEGF-A per mL and 303.58 pg VEGF-A per mL. For the same substance, the “Result (pg VEGF-A per mL)” value ([2]; 0.1 μg/well, 24 Hr) was 58.86 pg VEGF-A per mL and 52.60 pg VEGF-A per mL and 59.52 pg VEGF-A per mL and 52.51 pg VEGF-A per mL and 64.54 pg VEGF-A per mL and 56.89 pg VEGF-A per mL, the “% Negative Control” value ([2]; 0.1 μg/well, 48 Hr) was 100% and the “pg VEGF-A per mL” value ([2]; 0.1 μg/well, 48 Hr) was 94.7 pg VEGF-A per mL and 85.1 pg VEGF-A per mL and 110 pg VEGF-A per mL. The “Mean (pg VEGF-A per mL)” value ([2]; 0.1 μg/well, 48 Hr) was 966 pg VEGF-A per mL, the “Mean (pg VEGF-A per μg protein)” value ([2]; 0.1 μg/well, 48 Hr) was 14.067 pg VEGF-A per μg protein and the “% Control” value ([2]; 0.1 μg/well, 48 Hr) was 107.4%. For the same substance, the “Mean Result (pg VEGF-A per mL)” value ([2]; 0.1 μg/well, 48 Hr) was 189.30 pg VEGF-A per mL and 170.27 pg VEGF-A per mL and 220.04 pg VEGF-A per mL, the “pg VEGF-A per μg protein” value ([2]; 0.1 μg/well, 48 Hr) was 14.1 pg VEGF-A per μg protein and 13.1 pg VEGF-A per μg protein and 15.1 pg VEGF-A per μg protein and the “Adj. Result (pg VEGF-A per mL)” value ([2]; 0.1 μg/well, 48 Hr) was 946.50 pg VEGF-A per mL and 851.33 pg VEGF-A per mL and 1100.22 pg VEGF-A per mL. For the same substance, the “Result (pg VEGF-A per mL)” value ([2]; 0.1 μg/well, 48 Hr) was 195.75 pg VEGF-A per mL and 182.85 pg VEGF-A per mL and 173.80 pg VEGF-A per mL and 166.73 pg VEGF-A per mL and 220.87 pg VEGF-A per mL and 219.22 pg VEGF-A per mL, the “% Negative Control” value ([2]; 1 μg/well, 12 Hr) was 110.5% and the “pg VEGF-A per mL” value ([2]; 1 μg/well, 12 Hr) was 12.9 pg VEGF-A per mL and 13.7 pg VEGF-A per mL and 16.1 pg VEGF-A per mL. For the same substance, the “Mean (pg VEGF-A per mL)” value ([2]; 1 μg/well, 12 Hr) was 142.5 pg VEGF-A per mL, the “Mean (pg VEGF-A per μg protein)” value ([2]; 1 μg/well, 12 Hr) was 2.273 pg VEGF-A per μg protein and the “% Control” value ([2]; 1 μg/well, 12 Hr) was 120.3%. The “Mean Result (pg VEGF-A per mL)” value ([2]; 1 μg/well, 12 Hr) was 25.82 pg VEGF-A per mL and 27.43 pg VEGF-A per mL and 32.23 pg VEGF-A per mL, the “pg VEGF-A per μg protein” value ([2]; 1 μg/well, 12 Hr) was 2 pg VEGF-A per μg protein and 2.2 pg VEGF-A per μg protein and 2.7 pg VEGF-A per μg protein and the “Adj. Result (pg VEGF-A per mL)” value ([2]; 1 μg/well, 12 Hr) was 129.12 pg VEGF-A per mL and 137.14 pg VEGF-A per mL and 161.16 pg VEGF-A per mL. The “Result (pg VEGF-A per mL)” value ([2]; 1 μg/well, 12 Hr) was 26.74 pg VEGF-A per mL and 24.91 pg VEGF-A per mL and 26.62 pg VEGF-A per mL and 28.24 pg VEGF-A per mL and 33.18 pg VEGF-A per mL and 31.29 pg VEGF-A per mL, the “% Negative Control” value ([2]; 1 μg/well, 24 Hr) was 106.8% and the “pg VEGF-A per mL” value ([2]; 1 μg/well, 24 Hr) was 37.3 pg VEGF-A per mL and 31.2 pg VEGF-A per mL and 29.9 pg VEGF-A per mL. The “Mean (pg VEGF-A per mL)” value ([2]; 1 μg/well, 24 Hr) was 327.9 pg VEGF-A per mL, the “Mean (pg VEGF-A per μg protein)” value ([2]; 1 μg/well, 24 Hr) was 4.084 pg VEGF-A per μg protein and the “Mean Result (pg VEGF-A per mL)” value ([2]; 1 μg/well, 24 Hr) was 74.61 pg VEGF-A per mL and 62.42 pg VEGF-A per mL and 59.71 pg VEGF-A per mL. The “Adj. Result (pg VEGF-A per mL)” value ([2]; 1 μg/well, 24 Hr) was 373.06 pg VEGF-A per mL and 312.11 pg VEGF-A per mL and 298.74 pg VEGF-A per mL, the “Result (pg VEGF-A per mL)” value ([2]; 1 μg/well, 24 Hr) was 78.44 pg VEGF-A per mL and 70.78 pg VEGF-A per mL and 68.61 pg VEGF-A per mL and 56.23 pg VEGF-A per mL and 63.71 pg VEGF-A per mL and 55.71 pg VEGF-A per mL and the “pg VEGF-A per mL” value ([2]; 1 μg/well, 48 Hr) was 87.6 pg VEGF-A per mL and 101.9 pg VEGF-A per mL and 111.9 pg VEGF-A per mL. For the same substance, the “Mean (pg VEGF-A per mL)” value ([2]; 1 μg/well, 48 Hr) was 1004.7 pg VEGF-A per mL, the “Mean (pg VEGF-A per μg protein)” value ([2]; 1 μg/well, 48 Hr) was 13.796 pg VEGF-A per μg protein and the “% Control” value ([2]; 1 μg/well, 48 Hr) was 105.4%. For the same substance, the “Mean Result (pg VEGF-A per mL)” value ([2]; 1 μg/well, 48 Hr) was 175.22 pg VEGF-A per mL and 203.89 pg VEGF-A per mL and 223.71 pg VEGF-A per mL, the “pg VEGF-A per μg protein” value ([2]; 1 μg/well, 48 Hr) was 12.4 pg VEGF-A per μg protein and 13.6 pg VEGF-A per μg protein and 15.3 pg VEGF-A per μg protein and the “Adj. Result (pg VEGF-A per mL)” value ([2]; 1 μg/well, 48 Hr) was 876.08 pg VEGF-A per mL and 1019.44 pg VEGF-A per mL and 1118.55 pg VEGF-A per mL. The “Result (pg VEGF-A per mL)” value ([2]; 1 μg/well, 48 Hr) was 168.84 pg VEGF-A per mL and 181.59 pg VEGF-A per mL and 195.75 pg VEGF-A per mL and 212.03 pg VEGF-A per mL and 225.75 pg VEGF-A per mL and 221.67 pg VEGF-A per mL and the “% Negative Control” value ([2]; 10 μg/well, 12 Hr) was 107.8%.
